{"source": "patent US20130267485A1", "about": "“Pharmaceutical Combination of Resveratrol and Progestin to Treat and/or Prevent Myoma and/or Endometriosis” (LIBBS FARMACEUTICA LTDA., priority 2010, published 2013)", "key": {"[1]": {"test_system": "stromal cells extracted from human endometrium tissue", "assay": "Antiproliferative activity, MTT colorimetric method", "format": "cell-based", "method": "Negative control: stromal cells of endometrioma incubated with 200 μL of culture medium supplemented with 10% fetal bovine serum and 0.1% DMSO. After calculating the concentrations, the test substances were diluted in 100% DMSO, with stock solution concentrations being of 1 mM to ethinyl estradiol and 10 mM to Dienogest, Resveratrol and Danazol. The use solution was obtained by 1:10 serial dilutions in culture medium supplemented with 10% of fetal bovine serum and 1% of antibiotic/antimycotic. The final concentration of DMSO in the solutions was 0.1%. Endometrium tissues were obtained from 2 voluntary donors by means of videolaparoscopy, by signing the respective terms of consent and ages between 18 and 45 years. A fragment was taken from tissue samples for histological confirmation of endometriosis and the remaining was packaged in sterile flask containing culture medium DMEM/Ham's F12 (Gibco®) with ampicillin and streptomycin (Merck®) antibiotics, and they were taken immediately to the laboratory. […] The resulting suspension was centrifuged and re-suspended in culture medium, and it was then transferred to a 25 cm^2 culture bottle. The purity of cell cultures was tested by immunocytochemistry using rabbit anti-human vimentin monoclonal primary antibody (Spring Bioscience TM) and rabbit anti-IgG secondary polyclonal antibody from goat labeled with Texas Red (Invitrogen®). The cells were maintained and amplified in DMEM/Ham's F12 (Gibco®) 10% FBS medium, with […] of antibiotics ampicillin and streptomycin in culture bottle until reaching the sub-confluence (90% of confluence), and then they were transferred to 96-well plates for conducting the tests for assessing antiproliferative activity. Cells were transferred to 96-well plates to a density of 10,000 cells per well in culture medium with 10% of SBF and incubated during 48 hours. […] Then, MTT tetrazolium salt was added (Invitrogen) at a concentration of 1 mg/mL, according to the incubation periods described in the manufacturer's manual. Cell proliferation was indirectly evaluated using the MTT colorimetric method (Invitrogen) and absorbance measurement at 540 nm in SpectraMax M2 plate reader-Molecular Devices with SoftMax […].2 software. By following this procedure, results of antiproliferative activity. of drugs on cells can be obtained. Data were calculated with the ratio of values obtained from cultures exposed (and in different concentrations, combined or not) and cultures not exposed to drugs. The reference of 100% of cell viability, cells cultured without the presence of drugs, was considered."}, "[2]": {"test_system": "patients with intramural myoma, adenomyosis and endometriosis", "assay": "Uterus volume before and after treatment, 30 patients (plus comparative resveratrol-only patients)", "format": "in vivo, human", "method": "An experiment was carried out with 30 patients treated with combinations of drospirenone, ethinyl estradiol and resveratrol, as well as with combinations of gestinol and resveratrol, evaluating the volume of the uterus before and after the treatment. In the comparative studies with three patients A, B and C, showing intramural myoma treated only with resveratrol, there was observed a 32% increase for patient A, treated during 12 months; 27% increase for patient B, treated during 3 months; and 22% increase for patient C, treated during 1 month."}}, "data": [{"smiles": "Oc1ccc(/C=C/c2cc(O)cc(O)c2)cc1", "note": "[Resveratrol, trans-3,5,4″-trihidroxystilbene]", "values": [{"measurement": "Proliferation", "setting": "[1]; resveratrol alone 1.980 ng/mL, 100% = cells without drugs", "value": 94.8, "unit": "%"}, {"measurement": "Proliferation", "setting": "[1]; resveratrol alone 19.800 ng/mL, 100% = cells without drugs", "value": 90.6, "unit": "%"}, {"measurement": "Proliferation", "setting": "[1]; resveratrol alone 197.970 ng/mL (concentration used in the combination)", "value": 94.7, "unit": "%"}, {"measurement": "Proliferation", "setting": "[1]; resveratrol alone 1979.130 ng/mL", "value": 93.3, "unit": "%"}, {"measurement": "Proliferation", "setting": "[1]; resveratrol alone 19797.13 ng/mL", "value": 91.1, "unit": "%"}, {"measurement": "increase (intramural myoma, treated only with resveratrol)", "setting": "[2]; patient A, treated during 12 months", "value": 32, "unit": "%"}, {"measurement": "increase (intramural myoma, treated only with resveratrol)", "setting": "[2]; patient B, treated during 3 months", "value": 27, "unit": "%"}, {"measurement": "increase (intramural myoma, treated only with resveratrol)", "setting": "[2]; patient C, treated during 1 month", "value": 22, "unit": "%"}]}]}
